One may read the IC50 as the concentration that gives 50% inhibition.

The first assay has as its system TDP-43 aggregation. The assay can be described thus: TDP-43 aggregation assay in SY5Y TDP-43WT cells (high content imaging). Format: cell-based. As to conditions: Homo sapiens, tetracycline induction 24 hrs, 1 hour compound pre-treatment, sodium arsenite 23 hrs, 8-point dose curve, percentage of cells with TDP-43 aggregates, read-out: IC50, Inhibition of TDP-43 Aggregation. In short, it runs like this:
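Tetracycline-inducible eGFP-tagged wild-type human TDP-43 in SH-SY5Y cells, induced 24 h ([…]), compound pre-treated 1 h, then sodium arsenite […] for 23 h. Fixed cells imaged; percentage of DAPI-counted cells with aggregates gives IC50 from 8-point curves.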
In the case of `N[C@H]1CCN(C(=O)c2sc(-c3ccc(C4CCN(C5CCOCC5)CC4)cc3)cc2Br)C1` [Compound 255, (S)-(3-aminopyrrolidin-1-yl)(3-bromo-5-(4-(1-(tetrahydro-2H-pyran-4-yl)piperidin-4-yl)phenyl)thiophen-2-yl)methanone], the concentration for half-maximal inhibition (IC50) was less than 500 nM.

On to `COCCCN1CCC(c2ccc(-c3cc(Cl)c(C(=O)N4CC[C@H](N)C4)s3)cc2F)CC1` [Compound 268, (S)-(3-aminopyrrolidin-1-yl)(3-chloro-5-(3-fluoro-4-(1-(3-methoxypropyl)piperidin-4-yl)phenyl)thiophen-2-yl)methanone], for which the IC50 is less than 500 nM. For the compound `C#CCOCCOCCN1CCC(c2ccc(-c3cc(C)c(C(=O)N4CC[C@H](N)C4)s3)cc2)CC1` [Compound 290, (S)-(3-aminopyrrolidin-1-yl)(3-methyl-5-(4-(1-(2-(2-(prop-2-yn-1-yloxy)ethoxy)ethyl)piperidin-4-yl)phenyl)thiophen-2-yl)methanone], the half-maximal inhibitory concentration (IC50) is less than 500 nM.

In the case of `N[C@H]1CCN(C(=O)c2sc(-c3ccc(C4CCN(C5CCCC5)CC4)c(F)c3)cc2Cl)C1` [Compound 270, (S)-(3-aminopyrrolidin-1-yl)(3-chloro-5-(4-(1-cyclopentylpiperidin-4-yl)-3-fluorophenyl)thiophen-2-yl)methanone], the half-maximal inhibitory concentration (IC50) was less than 500 nM. Still for that read-out and setting: under `Cc1cc(-c2ccc(C3CCN(C4CC4)CC3)cc2)sc1C(=O)N1CC[C@H](N)C1` [Compound 175, (S)-(3-aminopyrrolidin-1-yl)(5-(4-(1-cyclopropylpiperidin-4-yl)phenyl)-3-methylthiophen-2-yl)methanone] stands less than 500 nM; under `COCCN1CCC(c2ccc(-c3cc(Cl)c(C(=O)N4CC[C@H](N)C4)s3)cc2Cl)CC1` [Compound 253, (S)-(3-aminopyrrolidin-1-yl)(3-chloro-5-(3-chloro-4-(1-(2-methoxyethyl)piperidin-4-yl)phenyl)thiophen-2-yl)methanone], less than 500 nM. For the compound `Cc1cc(-c2ccc(C3(N(C)C)CCCC3)cc2)sc1C(=O)N1CC[C@H](N)C1` [Compound 193, (S)-(3-aminopyrrolidin-1-yl){5[4-(1-dimethylaminocyclopentyl)phenyl]-3-methylthiophen-2-yl}methanone], the IC50 is 500 to 1000 nM.

Turning to `COCCN1CCC(c2ccc(-c3cc(C)c(C(=O)N4CC[C@H](N)C4)s3)cc2Cl)CC1` [Compound 248, (S)-(3-aminopyrrolidin-1-yl)(5-(3-chloro-4-(1-(2-methoxyethyl)piperidin-4-yl)phenyl)-3-methylthiophen-2-yl)methanone], the IC50 fell in the range of 500 to 1000 nM. On the same count and under the same terms, the result for `N[C@H]1CCN(C(=O)c2sc(-c3ccc(C4CCN(C5CCOCC5)CC4)c(Cl)c3)cc2OC(F)(F)F)C1` [Compound 252, (S)-(3-aminopyrrolidin-1-yl)(5-(3-chloro-4-(1-(tetrahydro-2H-pyran-4-yl)piperidin-4-yl)phenyl)-3-(trifluoromethoxy)thiophen-2-yl)methanone] reads 6000 to 10000 nM; that for `C#CCOCCN1CCC(c2ccc(-c3cc(C)c(C(=O)N4CC[C@H](N)C4)s3)cc2)CC1` [Compound 288, (S)-(3-amino-pyrrolidin-1-yl)(3-methyl-5-(4-(1-(2-(prop-2-yn-1-yloxy)ethyl)piperidin-4-yl)phenyl)thiophen-2-yl) methanone], less than 500 nM. Take `C=CCc1cc(-c2ccc(C3CCN(C4CCOCC4)CC3)cc2)sc1C(=O)N1CC[C@H](N)C1` [Compound 286]: the IC50 was less than 500 nM. Consider `Cc1cc(-c2ccc(C3=CCCCC3)cc2)sc1C(=O)N1CC[C@H](N)C1` [Compound 224], for which the IC50 was 6000 to 10000 nM. Consider `N[C@H]1CCN(C(=O)c2sc(-c3ccc(C4CCN(C5COC5)CC4)c(F)c3)cc2Cl)C1` [Compound 265, (S)-(3-aminopyrrolidin-1-yl)(3-chloro-5-(3-fluoro-4-(1-(oxetan-3-yl)piperidin-4-yl)phenyl)thiophen-2-yl)methanone], for which the IC50 is less than 500 nM. As to `COc1cc(-c2ccc(C3CCN(C4CCOCC4)CC3)c(F)c2)sc1C(=O)N1CC[C@H](N)C1` [Compound 292, (S)-(3-aminopyrrolidin-1-yl)(5-(3-fluoro-4-(1-(tetrahydro-2H-pyran-4-yl)piperidin-4-yl)phenyl)-3-methoxythiophen-2-yl)methanone], the IC50 lay in the range of 500 to 1000 nM.

Turning to `Cc1cc(-c2ccc(C3CCCC3)cc2)sc1C(=O)N1CC[C@H](N)C1` [Compound 241], the IC50 is 6000 to 10000 nM.

Turning to `N[C@H]1CCN(C(=O)c2sc(-c3ccc(C4CCN(C5CCOCC5)CC4)c(Cl)c3)cc2Cl)C1` [Compound 273, (S)-(3-aminopyrrolidin-1-yl)(3-chloro-5-(3-chloro-4-(1-(tetrahydro-2H-pyran-4-yl)piperidin-4-yl)phenyl)thiophen-2-yl)methanone], the IC50 was less than 500 nM. As for `CCc1cc(-c2ccc(C3CCN(C4CCOCC4)CC3)c(F)c2)sc1C(=O)N1CC[C@H](N)C1` [Compound 291, (S)-(3-aminopyrrolidin-1-yl)(3-ethyl-5-(3-fluoro-4-(1-(tetrahydro-2H-pyran-4-yl)piperidin-4-yl)phenyl)thiophen-2-yl)methanone], the IC50 was less than 500 nM. The same measure, in the same setting: the result for `COCCN1CCC(c2ccc(-c3cc(C)c(C(=O)N4CC[C@H](N)C4)s3)cc2F)CC1` [Compound 276, (S)-(3-aminopyrrolidin-1-yl)(5-(3-fluoro-4-(1-(2-methoxyethyl)piperidin-4-yl)phenyl)-3-methylthiophen-2-yl)methanone] reads less than 500 nM. Turning to `Cc1cc(-c2ccc3c(c2)COCC3)sc1C(=O)N1CC[C@H](N)C1` [Compound 195, (S)-(3-aminopyrrolidin-1-yl)[5-(isochroman-7-yl)-3-methylthiophen-2-yl]methanone], the IC50 lay in the range of 1000 to 2000 nM. `Cc1cc(-c2ccc3c(c2)CN(C)CC3)sc1C(=O)N1CC[C@H](N)C1` [Compound 189]: the IC50 was less than 500 nM. With `Cc1cc(-c2ccc(C3CCN(C4CCOC4)CC3)c(F)c2)sc1C(=O)N1CC[C@H](N)C1` (stereo partly drawn) [Compound 274, ((S)-3-aminopyrrolidin-1-yl)(5-(3-fluoro-4-(1-(tetrahydrofuran-3-yl)piperidin-4-yl)phenyl)-3-methylthiophen-2-yl)methanone], the IC50 was less than 500 nM. Still for that read-out and setting: the result for `Cc1cc(-c2ccc3c(c2)CCC3N(C)C)sc1C(=O)N1CC[C@H](N)C1` (stereo partly drawn) [Compound 188, ((S)-3-aminopyrrolidin-1-yl)(5-(1-(dimethylamino)-2,3-dihydro-1H-inden-5-yl)-3-methylthiophen-2-yl)methanone] reads less than 500 nM.

A further assay concerns tau stress granules. Kind of assay: SY5Y-tT1 tau arsenite assay (tau stress granules per cell). The assay is classed as cell-based. The following applies: SY5Y-tT1 cells, 2 hours compound, 90 minutes arsenite, 50% reduction of granules per cell, read-out: IC50, Inhibitor Activity of Tau Stress Granules. As for the experimental part: Example 91: In Vitro Efficacy Assay of Exemplary Compounds—SY5Y-tT1 Tau Arsenite/Thapsigargin Assay
• Before harvesting cells—checked to see if cells are ~80% confluency in their flask • 1. Aspirated growth media from flask. • 2. Added 4 mL of (0.25%) trypsin-EDTA (REF: 25200-056) • 3. Placed in 37° C. incubator for 5 minutes. • 4. Removed from incubator and added 11 mL growth media, washing any remaining cells adhered to the bottom of the flask. • 5. Transferred cell containing media to a 50 mL conical tube and spun for 5 minutes at 800 rpm. • 6. Aspirated supernatant and added 5 mL of growth media to cell pellet, triturating to make a homogenous cell solution. • 7. After counting cells, followed one of these plating paradigms: • (A) If treating with arsenite, plated cells at […] with tetracycline solution (5 mg/mL) added to cell solution at 1:5000 • (B) If treating with thapsigargin, plated cells at 4,000 cells/well with tetracycline solution (5 mg/mL) added to cell solution at 1:5000 • 8. Incubated at 37° C. for 48 hours.
• Solubilized all compounds to 10 mM prior to making dilution plates • 1. To a 96-well U-bottom plate (Falcon Non-Tissue Culture Treated Plates REF: 351177) added 120 μL growth media to all 96 wells, with an additional 58.2 μL to row A. • 2. Added 1.8 μL of 10 mM compound stock to wells A1-11, adding 1.8 μL of 10 mM PERKi stock (Selleck Chemistry GSK2606414 Cat No. S7307) as the control. • 3. Serially diluted 60 μL from row A down through each row, finishing with 180 μL total volume in row H. • 4. Transferred 12.5 μL of each dilution plate well to the correlating wells in cell plate, being careful not to touch cells adhered to bottom of the plate. • 5. Incubated for 2 hours.
• 1. Added 720 μL of 0.05 M sodium arsenite solution (CAS #: 7784-46-5) to 10 mL of growth media for a final concentration of […] arsenite solution, mix well. • 2. Added 12.5 μL of arsenite solution to all wells of compounds treated plate intended for arsenite treatment. • 3. Incubated at 37° C. for 90 minutes.
• Before beginning this part of the protocol: • Made 1×PBS by diluting 10× stock (10×, Phosphate buffered saline, Fisher #BP399— • 4) in sterile deionized water. • Diluted paraformaldehyde (16% Paraformaldehyde solution, Electron Microscopy Sciences #15710-S) to 4% in 1×PBS. • Diluted Hoechst stain (Life Technologies #H3570) 1:10,000 in 1×PBS (1 μL Hoechst per 10 mL 1×PBS). • Both solutions were protected from light. • 1) After compound treatment, aspirated media from cell plates and gently added in 50 μL of 4% paraformaldehyde for 10 min protected from light at room temperature. • 2) Aspirated paraformaldehyde solution and gently added 50 μL of 1:10,000 Hoechst solution to each well and incubated for 10 min protected from light at room temperature. • 3) Aspirated Hoechst solution and gently added 100 μL 1×PBS. Cover the plate with aluminum film (VWR #60941-126). • 4) Stored at 4° C. or used immediately for imaging on ThermoFisher CX7 imager.
Exemplary compounds of the disclosed herein were evaluated for efficacy for inhibitor activity of tau stress granules in the arsenite assay and quantified as drug concentration providing a 50% reduction (IC50) of granules per cell is shown in Table 4.
In Table 4 below, A indicates an IC50 (μM)<0.5 μM, B indicates an IC50 (μM) 0.5 μM to <1 μM, C indicates an IC50 (μM) 1 μM to <2 μM, and D indicates an IC50 (μM) 2 μM to <6 μM.
In the case of `CCCc1cc(-c2ccc(C3CCN(C(C)C)CC3)cc2)sc1C(=O)N1CC[C@H](N)C1` [Compound 110, (S)-(3-aminopyrrolidin-1-yl)(5-(4-(1-isopropylpiperidin-4-yl)phenyl)-3-propylthiophen-2-yl)methanone], the IC50 is 1000 to 2000 nM.

Take `Cc1cc(-c2ccc(C3CCN(C)CC3)cc2OC(F)(F)F)sc1C(=O)N1CC[C@H](N)C1` [Compound 103, (S)-(3-aminopyrrolidin-1-yl)(3-methyl-5-(4-(1-methylpiperidin-4-yl)-2-(trifluoromethoxy)phenyl)thiophen-2-yl)methanone]: the IC50 was in the range of 2000 to 6000 nM.

These data come from patent publication US20260258025A1, “INHIBITORS OF TDP-43 AND TAU AGGREGATION” (Aquinnah Pharmaceuticals, inc., priority 2023, published 2026).
